Measurements taken from the NIST ThermoML archive (doi:10.1021/je200616t).
Where “and” joins values, the source holds several entries; their conditions need not be identical. Equal entries are not always repeated.

How the values were obtained:
[1] = Liquid, MP522 conductivity instrument
[2] = xn = mol fraction of the nth substance listed; conditions: 298.15 K, 101 kPa, Liquid, MP522 conductivity instrument

CCCC[n+]1ccccc1.O=S(=O)([N-]S(=O)(=O)C(F)(F)F)C(F)(F)F [1-butylpyridinium bis[(trifluoromethyl)sulfonyl]imide]
electrical conductivity, [1]
Conditions	283.15 K	293.15 K	298.15 K	303.15 K	313.15 K
101 kPa	0.151 S/m	–	0.308 S/m	0.377 S/m	0.542 S/m and 0.54 S/m
101.33 kPa	0.15 S/m and 0.151 S/m	0.246 S/m	0.307 S/m and 0.308 S/m	0.378 S/m and 0.377 S/m	0.541 S/m and 0.542 S/m and 0.54 S/m

CCCC[n+]1ccccc1.O=S(=O)([N-]S(=O)(=O)C(F)(F)F)C(F)(F)F [1-butylpyridinium bis[(trifluoromethyl)sulfonyl]imide] + CO
[2]
Conditions	electrical conductivity [S/m]
x1 = 0.00227	0.302
x1 = 0.00676	0.679
x1 = 0.0112	0.961
x1 = 0.0179	1.29
x1 = 0.023	1.5
x1 = 0.0297	1.71
x1 = 0.0427	1.99
x1 = 0.0507	2.12
x1 = 0.0696	2.28
x1 = 0.092	2.35
x1 = 0.1676	2.15
x1 = 0.2137	1.96
x1 = 0.2653	1.72
x1 = 0.2984	1.58
x1 = 0.3655	1.33
x1 = 0.4009	1.22
x1 = 0.4397	1.11
x1 = 0.5194	0.91
x1 = 0.561	0.825
x1 = 0.6014	0.749
x1 = 0.6433	0.681
x1 = 0.7132	0.581
x1 = 0.7592	0.523
x1 = 0.8182	0.456
x1 = 0.8544	0.421
x1 = 0.8988	0.381
x1 = 0.9425	0.346
x1 = 1	0.308

CCCCC[n+]1ccccc1.O=S(=O)([N-]S(=O)(=O)C(F)(F)F)C(F)(F)F [1-pentylpyridinium bis(trifluoromethylsulfonyl)amide] + CO
[2]
Conditions	electrical conductivity [S/m]
x1 = 0.00257	0.323
x1 = 0.00682	0.658
x1 = 0.012	0.966
x1 = 0.0185	1.26
x1 = 0.0256	1.5
x1 = 0.0325	1.67
x1 = 0.0398	1.82
x1 = 0.0546	1.97
x1 = 0.0734	2.1
x1 = 0.0854	2.11
x1 = 0.1093	2.05
x1 = 0.1709	1.82
x1 = 0.2113	1.61
x1 = 0.3105	1.22
x1 = 0.3653	1.03
x1 = 0.4197	0.886
x1 = 0.4604	0.788
x1 = 0.5266	0.652
x1 = 0.5689	0.585
x1 = 0.6107	0.522
x1 = 0.6447	0.479
x1 = 0.7183	0.401
x1 = 0.7639	0.361
x1 = 0.8278	0.313
x1 = 0.8938	0.27
x1 = 0.9397	0.246
x1 = 1	0.216

CC[n+]1ccccc1.O=S(=O)([N-]S(=O)(=O)C(F)(F)F)C(F)(F)F [1-ethylpyridinium bis[(trifluoromethyl)sulfonyl]imide] + CCO
[2]
Conditions	electrical conductivity [S/m]
x1 = 0.0428	0.803
x1 = 0.0551	0.956
x1 = 0.0755	1.16
x1 = 0.0881	1.26
x1 = 0.1135	1.43
x1 = 0.1366	1.54
x1 = 0.1789	1.67
x1 = 0.2096	1.71
x1 = 0.234	1.73
x1 = 0.2537	1.73
x1 = 0.2781	1.72
x1 = 0.3029	1.7
x1 = 0.3612	1.64
x1 = 0.4404	1.51
x1 = 0.4844	1.44
x1 = 0.5537	1.31
x1 = 0.5948	1.24
x1 = 0.6418	1.16
x1 = 0.7011	1.05
x1 = 0.76	0.954
x1 = 0.8228	0.858
x1 = 0.8845	0.769
x1 = 1	0.629

CCCC[n+]1ccc(C)cc1.O=S(=O)([N-]S(=O)(=O)C(F)(F)F)C(F)(F)F
Conditions	electrical conductivity
[1], 298.15 K, 101 kPa	0.332 S/m and 0.333 S/m

CC[n+]1ccc(C)cc1.O=S(=O)([N-]S(=O)(=O)C(F)(F)F)C(F)(F)F + CCO
[2]
Conditions	electrical conductivity [S/m]
x1 = 0.0118	0.292
x1 = 0.0152	0.36
x1 = 0.021	0.468
x1 = 0.0327	0.669
x1 = 0.0593	1.04
x1 = 0.07	1.16
x1 = 0.0857	1.31
x1 = 0.1196	1.56
x1 = 0.1573	1.73
x1 = 0.2361	1.87
x1 = 0.3013	1.86
x1 = 0.3773	1.77
x1 = 0.4527	1.65
x1 = 0.53	1.51
x1 = 0.608	1.37
x1 = 0.6908	1.22
x1 = 0.7803	1.07
x1 = 0.8913	0.903
x1 = 1	0.769

CCCCCC[n+]1ccccc1.O=S(=O)([N-]S(=O)(=O)C(F)(F)F)C(F)(F)F [1-hexylpyridinium bis(trifluromethylsulfonyl)imide]
[1], 101 kPa
Conditions	electrical conductivity
283.15 K	0.0737 S/m
293.15 K	0.128 S/m and 0.129 S/m
298.15 K	0.163 S/m
303.15 K	0.205 S/m
313.15 K	0.306 S/m

CCCC[n+]1ccc(C)cc1.O=S(=O)([N-]S(=O)(=O)C(F)(F)F)C(F)(F)F + CO
[2]
Conditions	electrical conductivity [S/m]
x1 = 0.00761	0.7
x1 = 0.00979	0.836
x1 = 0.0118	0.951
x1 = 0.0142	1.07
x1 = 0.0176	1.24
x1 = 0.021	1.38
x1 = 0.0297	1.69
x1 = 0.0366	1.86
x1 = 0.0544	2.15
x1 = 0.0653	2.25
x1 = 0.0711	2.28
x1 = 0.0773	2.32
x1 = 0.1083	2.34
x1 = 0.1388	2.25
x1 = 0.1724	2.11
x1 = 0.1977	2
x1 = 0.2256	1.87
x1 = 0.2662	1.68
x1 = 0.3346	1.4
x1 = 0.3989	1.18
x1 = 0.481	1.02
x1 = 0.5543	0.861
x1 = 0.6316	0.719
x1 = 0.714	0.599
x1 = 0.7932	0.504
x1 = 0.8534	0.444
x1 = 0.9551	0.362
x1 = 1	0.332

CC[n+]1ccccc1.O=S(=O)([N-]S(=O)(=O)C(F)(F)F)C(F)(F)F [1-ethylpyridinium bis[(trifluoromethyl)sulfonyl]imide] + CO
[2]
Conditions	electrical conductivity [S/m]
x1 = 0.0169	1.42
x1 = 0.0206	1.61
x1 = 0.03	2
x1 = 0.0416	2.42
x1 = 0.0535	2.7
x1 = 0.068	2.93
x1 = 0.089	3.11
x1 = 0.1049	3.17
x1 = 0.1209	3.19
x1 = 0.1541	3.14
x1 = 0.2007	2.95
x1 = 0.2781	2.55
x1 = 0.3667	2.12
x1 = 0.4224	1.9
x1 = 0.5562	1.44
x1 = 0.6863	1.12
x1 = 0.8307	0.863
x1 = 1	0.63

CCCC[n+]1ccc(C)cc1.O=S(=O)([N-]S(=O)(=O)C(F)(F)F)C(F)(F)F + CCO
[2]
Conditions	electrical conductivity [S/m]
x1 = 0.011	0.243
x1 = 0.0125	0.269
x1 = 0.015	0.311
x1 = 0.0186	0.369
x1 = 0.0258	0.474
x1 = 0.0376	0.623
x1 = 0.0436	0.689
x1 = 0.0602	0.844
x1 = 0.0676	0.901
x1 = 0.0852	1.01
x1 = 0.1143	1.13
x1 = 0.1262	1.16
x1 = 0.1387	1.19
x1 = 0.1537	1.21
x1 = 0.1811	1.23
x1 = 0.2232	1.22
x1 = 0.2748	1.17
x1 = 0.3347	1.1
x1 = 0.3809	1.03
x1 = 0.4405	0.939
x1 = 0.5405	0.793
x1 = 0.642	0.663
x1 = 0.7148	0.579
x1 = 0.8106	0.482
x1 = 0.9328	0.379
x1 = 1	0.333

CCCCC[n+]1ccccc1.O=S(=O)([N-]S(=O)(=O)C(F)(F)F)C(F)(F)F [1-pentylpyridinium bis(trifluoromethylsulfonyl)amide] + CCO
[2]
Conditions	electrical conductivity [S/m]
x1 = 0.0223	0.403
x1 = 0.0292	0.483
x1 = 0.0374	0.574
x1 = 0.0477	0.669
x1 = 0.0603	0.761
x1 = 0.0725	0.831
x1 = 0.092	0.912
x1 = 0.1279	0.991
x1 = 0.1529	1.01
x1 = 0.1636	1.01
x1 = 0.175	1.01
x1 = 0.2038	0.998
x1 = 0.2608	0.941
x1 = 0.3058	0.882
x1 = 0.3508	0.82
x1 = 0.4166	0.731
x1 = 0.4692	0.662
x1 = 0.5309	0.587
x1 = 0.6063	0.503
x1 = 0.6746	0.437
x1 = 0.7613	0.363
x1 = 0.8138	0.325
x1 = 0.8772	0.283
x1 = 0.9319	0.251
x1 = 1	0.216

CCCC[n+]1ccccc1.O=S(=O)([N-]S(=O)(=O)C(F)(F)F)C(F)(F)F [1-butylpyridinium bis[(trifluoromethyl)sulfonyl]imide] + CCO
[2]
Conditions	electrical conductivity [S/m]
x1 = 0.02	0.389
x1 = 0.0313	0.543
x1 = 0.0415	0.66
x1 = 0.0601	0.83
x1 = 0.0722	0.915
x1 = 0.103	1.06
x1 = 0.1448	1.16
x1 = 0.1659	1.18
x1 = 0.184	1.19
x1 = 0.196	1.19
x1 = 0.2208	1.18
x1 = 0.2693	1.14
x1 = 0.3122	1.09
x1 = 0.362	1.02
x1 = 0.424	0.926
x1 = 0.4616	0.872
x1 = 0.5169	0.793
x1 = 0.5597	0.735
x1 = 0.6073	0.674
x1 = 0.6706	0.598
x1 = 0.7463	0.516
x1 = 0.8415	0.426
x1 = 0.8925	0.383
x1 = 1	0.307

CC[n+]1ccccc1.O=S(=O)([N-]S(=O)(=O)C(F)(F)F)C(F)(F)F [1-ethylpyridinium bis[(trifluoromethyl)sulfonyl]imide]
Conditions	electrical conductivity
[1], 298.15 K, 101 kPa	0.63 S/m and 0.629 S/m

CCCCC[n+]1ccccc1.O=S(=O)([N-]S(=O)(=O)C(F)(F)F)C(F)(F)F [1-pentylpyridinium bis(trifluoromethylsulfonyl)amide]
Conditions	electrical conductivity [S/m]
[1], 298.15 K, 101 kPa	0.216

CC[n+]1ccc(C)cc1.O=S(=O)([N-]S(=O)(=O)C(F)(F)F)C(F)(F)F + CO
[2]
Conditions	electrical conductivity [S/m]
x1 = 0.00925	0.925
x1 = 0.0105	1.01
x1 = 0.0144	1.27
x1 = 0.0176	1.45
x1 = 0.0227	1.72
x1 = 0.0313	2.1
x1 = 0.0393	2.36
x1 = 0.0492	2.62
x1 = 0.0575	2.79
x1 = 0.0666	2.94
x1 = 0.0757	3.05
x1 = 0.0856	3.14
x1 = 0.0993	3.22
x1 = 0.1435	3.26
x1 = 0.1601	3.23
x1 = 0.1736	3.2
x1 = 0.1902	3.14
x1 = 0.2037	3.09
x1 = 0.2297	2.97
x1 = 0.2575	2.84
x1 = 0.284	2.72
x1 = 0.3231	2.53
x1 = 0.3561	2.39
x1 = 0.3932	2.23
x1 = 0.4574	2
x1 = 0.5075	1.81
x1 = 0.5713	1.61
x1 = 0.6042	1.52
x1 = 0.6803	1.33
x1 = 0.7416	1.2
x1 = 0.8215	1.04
x1 = 0.8959	0.912
x1 = 0.918	0.883
x1 = 1	0.771

CC[n+]1ccc(C)cc1.O=S(=O)([N-]S(=O)(=O)C(F)(F)F)C(F)(F)F
Conditions	electrical conductivity
[1], 298.15 K, 101 kPa	0.771 S/m and 0.769 S/m
